Patent US10702528B2, “Hepatitis B antiviral agents” (Enanta Pharmaceuticals, Inc., priority 2015, dated 2020)
pEC50: −log10 of the molar value. Read-outs that look alike come from different tables or passages of the source.

How the values were obtained:
HBV = assay: HepAD38 antiviral screen: reduction of viral product accumulation (virion DNA by qPCR; HBsAg/HBeAg ELISA); format: cell-based; conditions: Hepatitis B virus; for pEC50: 120 h, HepAD38 cells, harvest five days after compound addition, reduction of viral product accumulation relative to no drug controls, read-out: HepAD38 EC50
Protocol: (§1) Methods: HepAD38 cells are maintained as previously reported (Ladner et al, Antimicrob. Agents Chemother. 1997, […], 1715). Briefly, cells are passaged upon attaining confluency in DMEM/F12 media in the presence of 10% FBS, Penn/Strep, 250 μg/mL G418, and 1 μg/ml tetracycline. Novel compounds are screened by first washing cells three times with PBS to remove tetracycline, and plating in 96 well plates at 35,000 cells/well. Compounds dissolved in DMSO are then diluted 1:200 into wells containing cells. Five days after compound addition, material is harvested for analysis. For an extended 8 day analysis, cells are plated and treated as described above, but media and compound are refreshed on d2 and d5 post initial treatment.
On harvest day, virion DNA is obtained by lysing with Sidestep Lysis and Stabilization Buffer and then quantified via quantitative real time PCR. Commercially available ELISA kits are used to quantitate the viral proteins HBsAg (Alpco) or HbeAg (US Biological) by following the manufacturer's recommended protocol after diluting samples to match the linear range of their respective assays. Irrespective of readout, compound concentrations that reduce viral product accumulation in the cell lysates or supernatants by relative to no drug controls (EC50) are reported; EC50 ranges are as follows: A<1 μM; B 1-10 μM; C>10 μM.

[1] = Compound toxicity by ATPlite 1 Step (total ATP levels) in HepAD38 cells; format: cell-based; conditions: human, day of harvest, concentration reducing total ATP levels by 50% relative to no drug controls
Protocol: as §1
Additionally, on day of harvest, compound toxicity is evaluated by treating cells with ATPlite 1 Step according to the manufacturer's protocol. Compound concentrations that reduce total ATP levels in wells by 50% relative to no drug controls (CC50) are reported; CC50 ranges are as follows: A>30 μM; B 10-30 μM; C<10 μM.

Compound	pEC50 (HBV)	CC50 [1] [µM]	EC50 (HBV; HePAD38, 120 h, read-out: HepAD38 EC50 (μM)) [µM]
CC1=C(CN(C)C)C(c2ccc(F)cc2Cl)N=C(c2nccs2)N1 (racemic) [Example 8]	< 5.00	> 30	
CC1=C(CO)C(c2ccc(F)cc2Cl)N=C(c2nccs2)N1 (racemic) [Example 9]	5.00 to 6.00	> 30	
COCC1=C(C)NC(c2nccs2)=NC1c1ccc(F)cc1Cl (racemic) [Example 10]	5.00 to 6.00	> 30	
CC(=O)C1=C(C)NC(c2nccs2)=NC1c1ccc(F)cc1Cl (racemic) [Example 11]	> 6.00	> 30	
C=CC1=C(C)NC(c2nccs2)=NC1c1ccc(F)cc1Cl (racemic) [Example 12]	> 6.00	> 30	
CC1=C(c2ncco2)C(c2ccc(F)cc2Cl)N=C(c2nccs2)N1 (racemic) [Example 13]	> 6.00	> 30	
CC1=C(c2nccs2)C(c2ccc(F)cc2Cl)N=C(c2nccs2)N1 (racemic) [Example 14]	> 6.00	> 30	
CC1=C(c2cc(C)no2)C(c2ccc(F)cc2Cl)N=C(c2nccs2)N1 (racemic) [Example 15]	> 6.00	> 30	
CC1=C(c2ccn(C)n2)C(c2ccc(F)cc2Cl)N=C(c2nccs2)N1 (racemic) [Example 16]	> 6.00	> 30	
CC1=C(c2ccnn2C)C(c2ccc(F)cc2Cl)N=C(c2nccs2)N1 (racemic) [Example 17]	> 6.00	> 30	
CC1=C(c2ccccc2)C(c2ccc(F)cc2Cl)N=C(c2nccs2)N1 (racemic) [Example 18]	> 6.00	10 to 30	
CC1=C(c2ccccn2)C(c2ccc(F)cc2Cl)N=C(c2nccs2)N1 (racemic) [Example 19]	5.00 to 6.00	> 30	
CC1=C(c2ncccn2)C(c2ccc(F)cc2Cl)N=C(c2nccs2)N1 (racemic) [Example 20]	5.00 to 6.00	> 30	
CC1=C(C(=O)NS(C)(=O)=O)C(c2ccc(F)cc2Cl)N=C(c2nccs2)N1 (racemic) [Example 21]	< 5.00	> 30	
CC1=C(C(=O)N(C)S(C)(=O)=O)C(c2ccc(F)cc2Cl)N=C(c2nccs2)N1 (racemic) [Example 22]	< 5.00	> 30	
CC1=C(S(C)(=O)=O)C(c2ccc(F)cc2Cl)N=C(c2nccs2)N1 (racemic) [Example 25]	< 5.00	> 30	
CCOP(=O)(OCC)C1=C(C)NC(c2nccs2)=NC1c1ccc(F)cc1Cl (racemic) [Example 26]		> 30	> 10
CC1=C(c2ncco2)[C@@H](c2ccc(F)cc2Cl)N=C(c2nccs2)N1 (single isomer, unassigned) [Example 13a]	5.00 to 6.00	> 30	
CC1=C(c2ncco2)[C@H](c2ccc(F)cc2Cl)N=C(c2nccs2)N1 (single isomer, unassigned) [Example 13b]	> 6.00	> 30	
CC1=C(c2ccn(C)n2)[C@@H](c2ccc(F)cc2Cl)N=C(c2nccs2)N1 (single isomer, unassigned) [Example 16a]	> 6.00	> 30	

Compound	pEC50 (HBV)	CC50 [1] [µM]	EC50 (HBV; HePAD38, 120 h, read-out: HepAD38 EC50 (μM)) [µM]
CC1=C(c2ccn(C)n2)[C@H](c2ccc(F)cc2Cl)N=C(c2nccs2)N1 (single isomer, unassigned) [Example 16b]	> 6.00	> 30	
CCOC(=O)C1=C(CN2CCC[C@H]2C(=O)NS(C)(=O)=O)NC(c2nccs2)=NC1c1ccc(F)cc1Cl (stereo partly shown) [Example 1]	5.00 to 6.00	10 to 30	
CCOC(=O)C1=C(CN2CC(F)(F)C[C@H]2C(=O)NS(C)(=O)=O)NC(c2nccs2)=NC1c1ccc(F)cc1Cl (stereo partly shown) [Example 2]	5.00 to 6.00	> 30	
CCOC(=O)C1=C(CN2CC(F)(F)C[C@H]2C#N)NC(c2nccs2)=NC1c1ccc(F)cc1Cl (stereo partly shown) [Example 3]	> 6.00	> 30	
CCOC(=O)[C@@H]1CC(F)(F)CN1CC1=C(C(=O)NS(C)(=O)=O)C(c2ccc(F)cc2Cl)N=C(c2nccs2)N1 (stereo partly shown) [Example 4]	< 5.00	> 30	
CCOC(=O)[C@@H]1CC(F)(F)CC1CC1=C(C#N)C(c2ccc(F)cc2Cl)N=C(c2nccs2)N1 (stereo partly shown) [Example 5]	5.00 to 6.00	> 30	
CCOC(=O)C1=C(CC2CCC[C@H]2C(=O)O)NC(c2nccs2)=NC1C1CCCCC1 (stereo partly shown) [Example 6]	< 5.00	> 30	
CCOC(=O)C1=C(CC2CC(F)(F)C[C@H]2C(=O)O)NC(c2nccs2)=NC1C1CCCC1 (stereo partly shown) [Example 7]	5.00 to 6.00	> 30	
CC1=C(c2nn[nH]n2)C(c2ccc(F)cc2Cl)N=C(c2nccs2)N1 (stereo not shown) [Example 27]	< 5.00	> 30	
CNS(=O)(=O)C1=C(C)NC(c2nccs2)=NC1c1ccc(F)cc1Cl (stereo not shown) [Example 28]	< 5.00	> 30	
CCOC(=O)C1=C(C)NC(N2CCCC2=O)=NC1c1ccc(F)cc1Cl (stereo not shown) [Example 29]	< 5.00	> 30	
CCOC(=O)C1=C(C)NC(N2CCCC2)=NC1c1ccc(F)cc1Cl (stereo not shown) [Example 30]	< 5.00	> 30	
CCOC(=O)C1=C(C)NC(C(=O)OC)=NC1c1ccc(F)cc1Cl (stereo not shown) [Example 31]	5.00 to 6.00	> 30	
CC1=C(C#N)C(c2ccc(F)cc2Cl)N=C(c2nccs2)N1 (stereo not shown) [Example 32]	> 6.00	> 30	
CC1=C(c2nccn2C)C(c2ccc(F)cc2Cl)N=C(c2nccs2)N1 (stereo not shown) [Example 33]	5.00 to 6.00	> 30	
CCn1ccc(C2=C(C)NC(c3nccs3)=NC2c2ccc(F)cc2Cl)n1 (stereo not shown) [Example 34]	> 6.00	> 30	
COCC1=C(c2ccn(C)n2)C(c2ccc(F)cc2Cl)N=C(c2nccs2)N1 (stereo not shown) [Example 35]	> 6.00	> 30	
Cn1ccc(C2=CNC(c3nccs3)=NC2c2ccc(F)cc2Cl)n1 (stereo not shown) [Example 36]	> 6.00	> 30	
CN(C)CC1=C(c2ccn(C)n2)C(c2ccc(F)cc2Cl)N=C(c2nccs2)N1 (stereo not shown) [Example 37]	< 5.00	10 to 30	
Cn1ccc(C2=C(CN3CC(F)(F)C[C@H]3C(=O)O)NC(c3nccs3)=NC2c2ccc(F)cc2Cl)n1 (stereo partly shown) [Example 38]	> 6.00	> 30	

Compound	pEC50 (HBV)	CC50 [1] [µM]	EC50 (HBV; HePAD38, 120 h, read-out: HepAD38 EC50 (μM)) [µM]
CCOC(=O)[C@@H]1CC(F)(F)CN1CC1=C(c2ccn(C)n2)C(c2ccc(F)cc2Cl)N=C(c2nccs2)N1 (stereo partly shown) [Example 39]	> 6.00	> 30	
Cn1ccc(C2=C(CC#N)NC(c3nccs3)=NC2c2ccc(F)cc2Cl)n1 (stereo not shown) [Example 40]	5.00 to 6.00	> 30	
Cn1ccc(C2=C(CO)NC(c3nccs3)=NC2c2ccc(F)cc2Cl)n1 (stereo not shown) [Example 41]	> 6.00	10 to 30	
Cn1ccc(C2=C(CN=[N+]=[N-])NC(c3nccs3)=NC2c2ccc(F)cc2Cl)n1 (stereo not shown) [Example 42]	> 6.00	> 30	
Cn1ccc(C2=C(CF)NC(c3nccs3)=NC2c2ccc(F)cc2Cl)n1 (stereo not shown) [Example 43]	> 6.00	> 30	
COC(=O)CC1=C(c2ccn(C)n2)C(c2ccc(F)cc2Cl)N=C(c2nccs2)N1 (stereo not shown) [Example 44]	5.00 to 6.00	> 30	
COC(=O)/C=C1\NC(c2nccs2)=NC(c2ccc(F)cc2Cl)C1c1ccn(C)n1 (stereo not shown) [Example 45]	5.00 to 6.00	10 to 30	
Cn1ccc(C2=C(CC(=O)O)NC(c3nccs3)=NC2c2ccc(F)cc2Cl)n1 (stereo not shown) [Example 46]	< 5.00	10 to 30	
CC1=C(c2ncco2)C(C)(c2ccc(F)cc2Cl)N=C(c2nccs2)N1 (stereo not shown) [Example 47]	< 5.00		
CC1=C(c2ccn(C)n2)C(C)(c2ccc(F)cc2Cl)N=C(c2nccs2)N1 (stereo not shown) [Example 48]	< 5.00		
CCOC(=O)C1=CNC(c2nccs2)=NC1(C)c1ccc(F)cc1 (stereo not shown) [Example 49]	5.00 to 6.00		
Cn1ccc(C2=CNC(c3nccs3)=NC2(C)c2ccc(F)cc2)n1 (stereo not shown) [Example 50]	5.00 to 6.00		
C=CCOC(=O)C1=CNC(c2nccs2)=NC1(C)c1ccc(F)cc1 (stereo not shown) [Example 51]	5.00 to 6.00		
Cn1ccc(C2=C(CN3C4CCC3COC4)NC(c3nccs3)=N[C@H]2c2ccc(F)cc2Cl)n1 [Example 52]	> 6.00		
Cn1ccc(C2=C(CN3CCOCC3)NC(c3nccs3)=N[C@H]2c2ccc(F)cc2Cl)n1 [Example 53]	> 6.00		
Cn1ccc(C2=C(CN3C4CCC3CC(O)C4)NC(c3nccs3)=N[C@H]2c2ccc(F)cc2Cl)n1 (stereo partly shown) [Example 54]	5.00 to 6.00		
COC(=O)[C@@H]1CCC[C@H]1N1C[C@@H]2CN(CC3=C(c4ccn(C)n4)[C@H](c4ccc(F)cc4Cl)N=C(c4nccs4)N3)CCN2C1=O [Example 55]	5.00 to 6.00		
CCOC(=O)C1=CNC(c2nccs2)=NC1(C)c1ccc(F)cc1Cl (stereo not shown) [Example 57]	5.00 to 6.00		
